# Key:
# Format in all cases: biochemical
# ACE2 = biological target: T1, ACE2 (Mus musculus, UniProt Q8R0I0); assay: SELDI-TOF-MS ACE assay, kidney extract incubated with AngI (ACE2 activity); conditions: AngI + kidney extract + MLN 4760
# T1 construct: Kidney extract (source of ACE1 & ACE2); from tissue; host or cells: kidney extract
# Method: FIG. 3: SELDI-TOF-MS ACE assay. Kidney extract (source of ACE1 & ACE2) were incubated with AngI A: kidney extract control; B: AngI; C: AngI+kidney extract, showing peptides generated from ACE1 & ACE2; D: AngI+kidney extract+MLN 4760 (ACE2 inhibitor).
# ACE1 [1] = test system: ACE1
# ACE1 [2] = test system: ACE1; remark: listed apart in the source
# T1 sequence (Q8R0I0 18-805): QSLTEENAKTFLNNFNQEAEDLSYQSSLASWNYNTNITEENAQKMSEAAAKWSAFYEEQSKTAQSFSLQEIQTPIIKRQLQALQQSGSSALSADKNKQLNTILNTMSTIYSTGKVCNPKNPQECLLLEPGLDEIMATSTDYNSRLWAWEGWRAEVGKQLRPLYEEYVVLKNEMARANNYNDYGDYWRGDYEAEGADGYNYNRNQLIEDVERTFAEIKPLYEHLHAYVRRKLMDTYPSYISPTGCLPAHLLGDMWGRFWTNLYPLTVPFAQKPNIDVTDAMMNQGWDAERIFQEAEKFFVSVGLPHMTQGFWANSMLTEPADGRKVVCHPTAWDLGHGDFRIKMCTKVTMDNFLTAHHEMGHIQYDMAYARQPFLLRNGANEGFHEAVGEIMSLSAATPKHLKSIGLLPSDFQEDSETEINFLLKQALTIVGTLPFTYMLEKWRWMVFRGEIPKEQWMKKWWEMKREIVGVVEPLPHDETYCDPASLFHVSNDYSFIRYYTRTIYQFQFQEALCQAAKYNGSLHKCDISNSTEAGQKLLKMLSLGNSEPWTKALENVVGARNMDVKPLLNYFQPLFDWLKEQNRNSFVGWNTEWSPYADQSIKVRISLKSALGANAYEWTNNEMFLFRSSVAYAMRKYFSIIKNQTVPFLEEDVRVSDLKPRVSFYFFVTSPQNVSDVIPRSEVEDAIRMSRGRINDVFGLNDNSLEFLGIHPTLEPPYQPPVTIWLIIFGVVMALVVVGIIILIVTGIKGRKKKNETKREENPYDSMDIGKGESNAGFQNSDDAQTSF
compound,measurement,setting,value
CC(C)C[C@H](N[C@@H](Cc1cncn1Cc1cc(Cl)cc(Cl)c1)C(=O)O)C(=O)O [MLN 4760],cleavage of AngI to Ang (1-7),ACE2,inhibited
same,effect on the formation of AngII,ACE1 [1],no effect
same,AngII level,ACE1 [2],increased
same,effect on ACE1,ACE1 [2],without affecting ACE1

# Source: US20060257861A1 (priority 2005, published 2006)
